Read-outs that look alike come from different tables or passages of the source.
Columns and labels:
[1] = biological target: T1, UGT1A4 (Homo sapiens, UniProt P22310); assay: Inhibition of UGT1A4 (trifluoperazine-N-glucuronidation) in human liver microsomes; format: in vitro ADME; details: for IC50: 4 μM trifluoperazine, mean ± SD of triplicate, read-out: IC50 towards UGT1A4; for Residual UGT1A4 enzyme activity: highest tested concentration 50 μM
T1 construct: pooled human liver microsomes (final concentration 0.25 mg/mL); tissue Corning Life Sciences; host or cells: pooled human liver microsomes, 150 donors
T1 sequence (P22310 29-534): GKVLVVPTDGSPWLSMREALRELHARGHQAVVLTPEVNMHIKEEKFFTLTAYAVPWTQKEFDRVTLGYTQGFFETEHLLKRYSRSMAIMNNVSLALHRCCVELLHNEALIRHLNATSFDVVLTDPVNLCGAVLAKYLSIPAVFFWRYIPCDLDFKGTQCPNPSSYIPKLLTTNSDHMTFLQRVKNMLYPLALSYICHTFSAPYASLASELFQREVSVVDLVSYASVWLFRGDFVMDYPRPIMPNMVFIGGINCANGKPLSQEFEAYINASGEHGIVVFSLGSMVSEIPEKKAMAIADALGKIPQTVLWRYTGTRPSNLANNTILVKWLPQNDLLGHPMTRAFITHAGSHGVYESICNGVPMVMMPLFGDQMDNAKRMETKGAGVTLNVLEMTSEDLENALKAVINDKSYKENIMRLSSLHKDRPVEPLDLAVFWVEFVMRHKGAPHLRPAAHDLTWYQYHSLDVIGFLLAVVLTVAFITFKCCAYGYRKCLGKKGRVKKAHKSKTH
Experimental: (§1) The formation activities of β-estradiol-3-glucuronide, chenodeoxycholic acid 24-acyl-β-D-glucuronide, trifluoperazine-N-glucuronide, imipramine-N-β-D-glucuronide, serotonin-O-glucuronide, propofol-O-glucuronide, and zidovudine-5′-glucuronide were determined to probe the activities of UGT1A1, UGT1A3, UGT1A4, UGT1A6, UGT1A9 and UGT2B7, respectively, in human liver microsomes.
(§2) In brief, the 90-µL incubation mixture, including pooled human liver microsomes (final concentration 0.25 mg/mL), 100 mM Tris buffer, 25 µg/mL alamethicin, 5 mM MgCl2, the UGT-selective substrates, and five xanthophylls (0–50 μM), were pre-incubated for 30 min on ice to allow formation of alamethicin pores. Reac2345tions were initiated by the addition of 10 μL of UDPGA (5 mM) to a final reaction volume of 0.1 mL and incubated at 37 °C for 60 min (except 30 min for UGT1A9) in a shaking water bath. After incubation, each reaction was stopped by adding 50 μL of ice-cold acetonitrile containing chlorpropamide (300 ng/mL) or theophylline (30 μg/mL or 300 μg/mL) as an internal standard. The mixtures were then centrifuged (13,000 g for 15 min at 4 °C) and 5-µL aliquots of the supernatants were injected into an LC-MS/MS system. […] All incubations were performed in triplicate, and mean values were used for analysis.
(§3) Chromatographic separations were performed on an Agilent Poroshell 120 EC-C18 column (50 mm × 4.6-mm i.d.; 2.7-μm particle size; Agilent Technologies) to quantify β-estradiol-3-glucuronide (UGT1A1), chenodeoxycholic acid 24-acyl-β-D-glucuronide (UGT1A3), trifluoperazine-N-glucuronide (UGT1A4), propofol-O-glucuronide (UGT1A9), zidovudine-5′-glucuronide (UGT2B7), and 4-methylumbelliferyl glucuronide (UGT2B15); an Agilent Poroshell 120 EC-C18 column (100 × 4.6-mm i.d.; 2.7-mm particle size) was used for quantification of serotonin-O-glucuronide (UGT1A6). The isocratic mobile phase consisted of distilled water (A) and acetonitrile containing 0.1% formic acid (B) at a ratio (v/v) of 10:90 for chenodeoxycholic acid 24-acyl-β-D-glucuronide, 30:70 for trifluoperazine-N-glucuronide and zidovudine-5′-glucuronide, 50:50 for propofol-O-glucuronide and 4-methylumbelliferyl glucuronide, 65:35 for β-estradiol-3-glucuronide, and 90:10 for serotonin-O-glucuronide, at a flow rate of 0.5 mL/min. The total run time was 4.0 min per sample for each metabolite, with the exception of serotonin-O-glucuronide (6.0 min). Peak areas for all of the analytes were automatically integrated using Analyst software (version 1.5.2, Applied Biosystems, Foster City, CA, USA).
(§4) The IC50 values were calculated via nonlinear least-squares regression analysis from plots of the logarithms of inhibitor concentration vs. the residual percentages of activities after inhibition, using WinNonlin (ver. 4.0; Pharsight, Mountain View, CA, USA).

[2] = biological target: T2, UGT1A6 (Homo sapiens, UniProt P19224); assay: Inhibition of UGT1A6 (serotonin-O-glucuronidation) in human liver microsomes; format: in vitro ADME; details: for IC50: 4000 μM serotonin, mean ± SD of triplicate, read-out: IC50 towards UGT1A6; for Residual UGT1A6 enzyme activity: highest tested concentration 50 μM
T2 construct: pooled human liver microsomes (final concentration 0.25 mg/mL); tissue Corning Life Sciences; host or cells: pooled human liver microsomes, 150 donors
T2 sequence (P19224 27-532): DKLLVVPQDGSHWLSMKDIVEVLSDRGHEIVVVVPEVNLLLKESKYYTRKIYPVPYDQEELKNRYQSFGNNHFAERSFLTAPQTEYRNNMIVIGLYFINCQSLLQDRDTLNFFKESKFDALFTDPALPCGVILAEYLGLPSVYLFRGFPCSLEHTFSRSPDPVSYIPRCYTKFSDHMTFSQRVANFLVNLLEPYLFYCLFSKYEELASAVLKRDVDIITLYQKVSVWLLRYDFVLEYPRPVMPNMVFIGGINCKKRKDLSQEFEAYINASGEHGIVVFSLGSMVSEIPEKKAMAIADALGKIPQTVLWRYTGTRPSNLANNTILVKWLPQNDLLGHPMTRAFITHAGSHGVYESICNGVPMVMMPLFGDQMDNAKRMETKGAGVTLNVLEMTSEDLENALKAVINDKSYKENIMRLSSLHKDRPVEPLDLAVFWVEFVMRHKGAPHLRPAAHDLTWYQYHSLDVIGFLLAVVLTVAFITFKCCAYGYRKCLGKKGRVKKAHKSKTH
Experimental: as §1, §2
The IC50 values were calculated via nonlinear least-squares regression analysis from plots of the logarithms of inhibitor concentration vs. the residual percentages of activities after inhibition, using WinNonlin (ver. 4.0; Pharsight, Mountain View, CA, USA). The apparent inhibitory constants (the Ki values) were estimated from fitted curves using the WinNonlin software. Inhibition data were fitted to different models of enzyme inhibition (competitive, non-competitive, uncompetitive, or mixed) using nonlinear least-squares regression analysis (WinNonlin software). The most appropriate inhibition model was selected based on goodness-of-fit criteria determined via visual inspection, by calculating correlations of determination (R^2 values), and using the corrected Akaike′s Information Criterion. For visual inspection, data were presented as Dixon plots.

[3] = biological target: T3, UGT1A1 (Homo sapiens, UniProt P22309); assay: Inhibition of UGT1A1 (β-estradiol-3-glucuronidation) in human liver microsomes; details: for Residual UGT1A1 enzyme activity: highest tested concentration 50 μM
T3 sequence (P22309 26-533): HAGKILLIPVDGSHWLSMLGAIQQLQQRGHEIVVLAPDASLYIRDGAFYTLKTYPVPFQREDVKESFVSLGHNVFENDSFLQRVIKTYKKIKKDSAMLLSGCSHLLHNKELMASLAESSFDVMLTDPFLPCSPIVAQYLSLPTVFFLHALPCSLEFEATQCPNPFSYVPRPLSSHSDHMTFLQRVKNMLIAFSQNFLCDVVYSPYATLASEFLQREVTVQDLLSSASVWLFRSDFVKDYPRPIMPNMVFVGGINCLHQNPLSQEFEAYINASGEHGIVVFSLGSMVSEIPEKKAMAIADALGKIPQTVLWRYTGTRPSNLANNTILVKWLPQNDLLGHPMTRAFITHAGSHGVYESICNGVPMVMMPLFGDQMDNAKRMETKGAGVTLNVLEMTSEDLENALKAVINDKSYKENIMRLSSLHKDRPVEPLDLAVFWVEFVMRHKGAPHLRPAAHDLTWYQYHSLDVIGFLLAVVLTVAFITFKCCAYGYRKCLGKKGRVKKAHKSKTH
Experimental: as §1, §2, §3, §4

[4] = biological target: T4, UGT2B7 (Homo sapiens, UniProt P16662); assay: Inhibition of UGT2B7 (zidovudine-5′-glucuronidation) in human liver microsomes; details: for Residual UGT2B7 enzyme activity: highest tested concentration 50 μM
T4 sequence (P16662 24-529): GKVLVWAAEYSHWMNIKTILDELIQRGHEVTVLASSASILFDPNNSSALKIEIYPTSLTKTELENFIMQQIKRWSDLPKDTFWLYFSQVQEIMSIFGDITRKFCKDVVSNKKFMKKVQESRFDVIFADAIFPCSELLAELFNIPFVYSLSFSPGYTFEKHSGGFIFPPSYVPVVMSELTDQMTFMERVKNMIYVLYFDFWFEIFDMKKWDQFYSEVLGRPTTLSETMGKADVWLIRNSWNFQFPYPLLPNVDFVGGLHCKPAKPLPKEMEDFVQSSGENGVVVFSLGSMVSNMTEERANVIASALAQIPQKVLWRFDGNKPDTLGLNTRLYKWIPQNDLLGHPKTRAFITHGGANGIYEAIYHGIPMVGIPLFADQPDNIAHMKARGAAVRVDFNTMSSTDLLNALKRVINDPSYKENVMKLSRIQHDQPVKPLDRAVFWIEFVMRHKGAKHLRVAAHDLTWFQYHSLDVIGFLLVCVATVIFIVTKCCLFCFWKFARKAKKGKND
Experimental: as §1, §2, §3, §4

[5] = biological target: T5, UGT1A3 (Homo sapiens, UniProt P35503); assay: Inhibition of UGT1A3 (chenodeoxycholic acid 24-acyl-β-D-glucuronidation) in human liver microsomes; details: for Residual UGT1A3 enzyme activity: highest tested concentration 50 μM
T5 sequence (P35503 29-534): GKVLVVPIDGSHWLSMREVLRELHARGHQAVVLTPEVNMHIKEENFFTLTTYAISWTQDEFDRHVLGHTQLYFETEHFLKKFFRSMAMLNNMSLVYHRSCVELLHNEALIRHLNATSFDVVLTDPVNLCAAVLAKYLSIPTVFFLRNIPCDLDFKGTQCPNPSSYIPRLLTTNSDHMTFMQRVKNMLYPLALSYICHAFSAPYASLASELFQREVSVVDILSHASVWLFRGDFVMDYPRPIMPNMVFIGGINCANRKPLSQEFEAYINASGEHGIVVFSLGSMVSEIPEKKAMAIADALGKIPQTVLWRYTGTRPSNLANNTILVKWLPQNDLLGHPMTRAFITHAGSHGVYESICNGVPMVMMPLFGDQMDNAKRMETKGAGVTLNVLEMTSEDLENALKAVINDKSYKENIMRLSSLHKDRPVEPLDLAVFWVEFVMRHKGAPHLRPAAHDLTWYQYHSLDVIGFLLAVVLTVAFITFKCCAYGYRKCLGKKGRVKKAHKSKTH
Experimental: as §1, §2, §3, §4

[6] = read-out: IC50 towards UGT1A1, human liver microsomes, 10 μM β-estradiol, mean ± SD of triplicate
[7] = read-out: IC50 towards UGT2B7, human liver microsomes, 100 μM zidovudine, mean ± SD of triplicate
[8] = read-out: IC50 towards UGT1A3, human liver microsomes, 15 μM chenodeoxycholic acid, mean ± SD of triplicate

## CC1=C(/C=C/C(C)=C/C=C/C(C)=C/C=C/C=C(C)/C=C/C=C(C)/C=C/C2=C(C)C(=O)[C@@H](O)CC2(C)C)C(C)(C)C[C@H](O)C1=O [AS, astaxanthin]
[1]
  IC50: > 50 µM
  Residual UGT1A4 enzyme activity: greater than 80%
[2]
  IC50: > 50 µM
  Residual UGT1A6 enzyme activity: greater than 80%
[3]
  IC50: > 50 µM
[3]; human liver microsomes
  Residual UGT1A1 enzyme activity: greater than 80%
[4]
  IC50: > 50 µM
[4]; human liver microsomes
  Residual UGT2B7 enzyme activity: greater than 80%
[5]
  IC50: > 50 µM
[5]; human liver microsomes
  Residual UGT1A3 enzyme activity: greater than 80%

## CC1=C(/C=C/C(C)=C/C=C/C(C)=C/C=C/C=C(C)/C=C/C=C(C)/C=C/C2=C(C)C(=O)CCC2(C)C)C(C)(C)CCC1=O [CA, canthaxanthin]
[1]
  IC50: > 50 µM
[2]
  IC50: > 50 µM
[3]; [6]
  IC50: 38.5 ± 4.65 µM
[4]; [7]
  IC50: > 50 µM
[5]; [8]
  IC50: 41.2 ± 3.14 µM

## CC1=C[C@H](O)CC(C)(C)[C@H]1/C=C/C(C)=C/C=C/C(C)=C/C=C/C=C(C)/C=C/C=C(C)/C=C/C1=C(C)C[C@@H](O)CC1(C)C [LU, lutein]
[1]
  IC50: 28.7 ± 3.79 µM
[2]
  IC50: > 50 µM
[3]
  IC50: 45.5 ± 4.01 µM
[4]
  IC50: > 50 µM
[5]
  IC50: > 50 µM

## CC1=C(/C=C/C(C)=C/C=C/C(C)=C/C=C/C=C(C)/C=C/C=C(C)/C=C/C2=C(C)C[C@@H](O)CC2(C)C)C(C)(C)C[C@H](O)C1 [ZE, zeaxanthin]
[1]
  IC50: > 50 µM
  Residual UGT1A4 enzyme activity: greater than 80%
[2]
  IC50: > 50 µM
  Residual UGT1A6 enzyme activity: greater than 80%
[3]
  IC50: > 50 µM
[3]; human liver microsomes
  Residual UGT1A1 enzyme activity: 61.2%
[4]
  IC50: > 50 µM
[4]; human liver microsomes
  Residual UGT2B7 enzyme activity: greater than 80%
[5]
  IC50: > 50 µM
[5]; human liver microsomes
  Residual UGT1A3 enzyme activity: 64.2%

## CC1=C(/C=C/C(C)=C/C=C/C(C)=C/C=C/C=C(C)/C=C/C=C(C)/C=C/C2=C(C)C[C@@H](O)CC2(C)C)C(C)(C)CCC1 [βC, β-cryptoxanthin]
[1]
  IC50: 34.9 ± 5.98 µM
[2]
  IC50: > 50 µM
[3]; [6]
  IC50: 18.8 ± 2.07 µM
[4]; [7]
  IC50: > 50 µM
[5]; [8]
  IC50: 28.3 ± 4.4 µM

From publication PMC6272861, “In Vitro Inhibition of Human UDP-Glucuronosyl-Transferase (UGT) Isoforms by Astaxanthin, β-Cryptoxanthin, Canthaxanthin, Lutein, and Zeaxanthin: Prediction of in Vivo Dietary Supplement-Drug Interactions” (Molecules, 2016)
